Structures can show the parent of a compound that is named as a salt.
Columns and labels:
[1] = In vitro dissociation of the water soluble taxane derivatives in blood plasma of rabbit; format: in vitro ADME, New Zealand white rabbits; conditions: 37° C.
Description: The obtained water soluble taxane derivatives were formulated as 0.2 mg/ml aqueous solutions. […] After 5 min, 20 min and 60 min of incubation, 0.2 ml of solutions were respectively taken from each of the samples, and added to acetonitrile (0.4 ml) cooled to −20° C. for precipitation of protein.

[2] = tested on: human ovarian cancer SK-OV-3; conditions: 24 mg/kg (paclitaxel 16 mg/kg) D0-4 IV; for Tumor inhibitory percent (%) D22: P=0.000 compared to the control; for Tumor volume (D0): D0, at grouping
Description: Test of the inhibitory activity of the water soluble paclitaxel derivatives on subcutaneously xenografted tumor of human ovarian cancer SK-OV-3 in nude mice: evaluating and comparing the inhibitory activity of the water soluble paclitaxel derivatives of the present invention, paclitaxel and Abraxane® on subcutaneously xenografted tumor of human ovarian cancer SK-OV-3 in nude mice.
Human ovarian cancer SK-OV-3 cells were subcutaneously inoculated to nude mice. After the tumor volume reached 100-150 mm^3, the animals were randomly divided into groups (D0), and administered with the water soluble paclitaxel derivatives of the present invention, paclitaxel, and Abraxane®, respectively once per day for 5 days. The tumor volume was measured 2-3 times per week, the animals were weighed and the data were recorded until day 22 (D22) after grouping.
The tumor volume (V) was calculated according to the equation: V=½×a×b^2, wherein a and b represent the length and the width, respectively.
T/C (%)=(T−T0)/(C−C0)×100, wherein T and C represent the tumor volume at the end of the experiment; and T0 and C0 represent the tumor volume at the beginning of the experiment.

[3] = In vitro dissociation of the water soluble taxane derivatives in blood plasma of rat; format: in vitro ADME, SD rats; conditions: 37° C.
Description: The obtained water soluble taxane derivatives were formulated as 0.2 mg/ml aqueous solutions. […] After 2 min, 5 min and 10 min of incubation, 0.2 ml of solutions were respectively taken from each of the samples, and added to acetonitrile (0.4 ml) cooled to −20° C. for precipitation of protein.

Compound	dissociation percent ([1]; 5 min)	dissociation percent ([1]; 20 min)	dissociation percent ([1]; 60 min)	Weight change (%) D4 [2]	T/C (%) D22 [2]	Tumor volume (D22) [2]	Tumor inhibitory percent (%) D22 [2]	dissociation percent ([3]; 2 min)	dissociation percent ([3]; 5 min)	dissociation percent ([3]; 10 min)	Tumor volume (D0) [2]
CC(=O)O[C@H]1C(=O)[C@@]2(C)[C@H]([C@H](OC(=O)c3ccccc3)[C@]3(O)C[C@H](OC(=O)[C@H](OC(=O)[C@@H](F)CCN(C)C)[C@@H](NC(=O)c4ccccc4)c4ccccc4)C(C)=C1C3(C)C)[C@]1(OC(C)=O)CO[C@@H]1C[C@@H]2O.CS(=O)(=O)O [Compound C2, 2′-O-[4-(N,N-dimethyl)amino-2(S)-fluorobutyryl]paclitaxel methanesulfonate]	69.7%	98.1%	100%	−5.8%	−61%	51.2 ± 11.2 mm^3	158%	62.8%	96.5%	100%	–
2′-O-[5-(N-methyl-N-ethyl)amino-2(R)-2-difluoroethylvaleryl]docetaxel hydrochloride [Compound 12]	35.2%	61.3%	73.2%	–	–	–	–	43.6%	75.6%	89.6%	–
CCN(C)CC[C@@H](F)C(=O)O[C@@H](C(=O)O[C@H]1C[C@@]2(O)[C@@H](OC(=O)c3ccccc3)[C@@H]3[C@]4(OC(C)=O)CO[C@@H]4C[C@H](O)[C@@]3(C)C(=O)[C@H](OC(C)=O)C(=C1C)C2(C)C)[C@@H](NC(=O)c1ccccc1)c1ccccc1.CS(=O)(=O)O [Compound 16, 2′-O-[4-(N-methyl-N-ethyl)amino-2(R)-fluorobutyryl]paclitaxel methanesulfonate]	–	–	–	−7.0%	−53%	55.7 ± 10.6 mm^3	137%	–	–	–	133.6 ± 9.4 mm^3
COC1C(=O)C2(C)C(OC)CC3OCC3(OC(C)=O)C2C(OC(=O)c2ccccc2)C2(O)CC(OC(=O)C(OC(=O)C(F)CCN(C)C)C(NC(=O)OC(C)(C)C)c3ccccc3)C(C)=C1C2(C)C.Cl [Compound 09, 2′-O-[4-(N,N-dimethyl)amino-2(R,S)-fluorobutyryl]cabazitaxel hydrochloride]	83.2%	97.1%	100%	–	–	–	–	47.8%	89.1%	100%	–
CC(=O)OC1C(=O)C2(C)C(O)CC3OCC3(OC(C)=O)C2C(OC(=O)c2ccccc2)C2(O)CC(OC(=O)C(OC(=O)C(CCN(C)C)C(F)(F)F)C(NC(=O)c3ccccc3)c3ccccc3)C(C)=C1C2(C)C.Cc1ccc(S(=O)(=O)O)cc1 [Compound 19, 2′-O-[4-(N,N-dimethyl)amino-2(R,S)-2-trifluoromethylbutyryl]paclitaxel p-toluene sulfonate]	–	–	–	−8.9%	−48%	57.3 ± 11.4 mm^3	124%	–	–	–	134.9 ± 11.4 mm^3
CC(=O)O[C@H]1C(=O)[C@@]2(C)[C@H]([C@H](OC(=O)c3ccccc3)[C@]3(O)C[C@H](OC(=O)[C@H](OC(=O)[C@H](F)CCN(C)C)[C@@H](NC(=O)c4ccccc4)c4ccccc4)C(C)=C1C3(C)C)[C@]1(OC(C)=O)CO[C@@H]1C[C@@H]2O.CS(=O)(=O)O [Compound C1, 2′-O-[4-(N,N-dimethyl)amino-2(R)-fluorobutyryl]paclitaxel methanesulfonate]	77.2%	98.4%	100%	−5.9%	−63%	–	163%	64.3%	97.0%	100%	133.6 ± 9.5 mm^3
CO[C@H]1C(=O)[C@]2(C)[C@@H](OC)C[C@H]3OC[C@@]3(OC(C)=O)[C@H]2[C@H](OC(=O)c2ccccc2)[C@]2(O)C[C@H](OC(=O)[C@H](OC(=O)[C@H](F)CCN(C)C)[C@@H](NC(=O)OC(C)(C)C)c3ccccc3)C(C)=C1C2(C)C [Compound 07, 2′-O-[4-(N,N-dimethyl)amino-2(R)-fluorobutyryl]cabazitaxel hydrochloride]	79.2%	95.5%	100%	–	–	–	–	49.5%	89.6%	100%	–
CC(=O)O[C@H]1C(=O)[C@@]2(C)[C@H]([C@H](OC(=O)c3ccccc3)[C@]3(O)C[C@H](OC(=O)[C@H](OC(=O)[C@H](F)CCCN(C)C)[C@@H](NC(=O)c4ccccc4)c4ccccc4)C(C)=C1C3(C)C)[C@]1(OC(C)=O)CO[C@@H]1C[C@@H]2O.O=C(O)/C=C\C(=O)O [Compound 21, 2′-O-[5-(N,N-dimethyl)amino-2(R)-fluorovaleryl]paclitaxel maleate]	–	–	–	−9.4%	−23%	70.8 ± 16.8 mm^3	60%	–	–	–	135.8 ± 14.7 mm^3
COC1C(=O)C2(C)C(OC)CC3OCC3(OC(C)=O)C2C(OC(=O)c2ccccc2)C2(O)CC(OC(=O)C(OC(=O)C(CCN)C(F)F)C(NC(=O)OC(C)(C)C)c3ccccc3)C(C)=C1C2(C)C.O=S(=O)([O-])O.[Na+] [Compound 10, 2′-O-[4-amino-2(R)-difluoromethylbutyryl]cabazitaxel sodium bisulfate salt]	38.1%	63.2%	80.3%	–	–	–	–	45.2%	86.5%	96.8%	–
CC(=O)OC1C(=O)C2(C)C(O)CC3OCC3(OC(C)=O)C2C(OC(=O)c2ccccc2)C2(O)CC(OC(=O)C(OC(=O)C(CCCCN(C)C)C(F)F)C(NC(=O)c3ccccc3)c3ccccc3)C(C)=C1C2(C)C.O=S(=O)(O)O [Compound 22, 2′-O-[6-(N,N-dimethyl)amino-2(S)-2-difluoromethylhexanoyl]paclitaxel sulfate]	–	–	–	−11.6%	−14%	79.8 ± 12.8 mm^3	36%	–	–	–	133.8 ± 12.2 mm^3
CO[C@H]1C(=O)[C@]2(C)[C@@H](OC)C[C@H]3OC[C@@]3(OC(C)=O)[C@H]2[C@H](OC(=O)c2ccccc2)[C@]2(O)C[C@H](OC(=O)[C@H](OC(=O)[C@@H](F)CCN(C)C)[C@@H](NC(=O)OC(C)(C)C)c3ccccc3)C(C)=C1C2(C)C.Cl [Compound 08, 2′-O-[4-(N,N-dimethyl)amino-2(S)-fluorobutyryl]cabazitaxel hydrochloride]	89.9%	93.2%	100%	–	–	–	–	47.6%	87.6%	100%	–
CC(=O)O[C@H]1C(=O)[C@@]2(C)[C@H]([C@H](OC(=O)c3ccccc3)[C@]3(O)C[C@H](OC(=O)[C@H](OC(=O)C(F)CCN(C)C(C)C)[C@@H](NC(=O)c4ccccc4)c4ccccc4)C(C)=C1C3(C)C)[C@]1(OC(C)=O)CO[C@@H]1C[C@@H]2O.Cl (stereo partly drawn) [Compound 18, 2′-O-[4-(N-methyl-N-isopropyl)amino-2(R,S)-fluorobutyryl]paclitaxel hydrochloride]	–	–	–	−10.3%	−38%	60.4 ± 12.3 mm^3	98%	–	–	–	127.9 ± 11.4 mm^3
CC(=O)O[C@H]1C(=O)[C@@]2(C)[C@H]([C@H](OC(=O)c3ccccc3)[C@]3(O)C[C@H](OC(=O)[C@H](OC(=O)C(CCN(C)C)C(F)F)[C@@H](NC(=O)c4ccccc4)c4ccccc4)C(C)=C1C3(C)C)[C@]1(OC(C)=O)CO[C@@H]1C[C@@H]2O.Cl (stereo partly drawn) [Compound 20, 2′-O-[4-(N,N-dimethyl)amino-2(R,S)-2-difluoromethylbutyryl]paclitaxel hydrochloride]	–	–	–	−8.4%	−35%	61.2 ± 13.5 mm^3	91%	–	–	–	133.4 ± 12.6 mm^3
CCN(CC)CC[C@](C)(C(=O)O[C@@H](C(=O)O[C@H]1C[C@@]2(O)[C@@H](OC(=O)c3ccccc3)[C@@H]3[C@]4(OC(C)=O)CO[C@@H]4C[C@H](OC)[C@@]3(C)C(=O)[C@H](OC)C(=C1C)C2(C)C)[C@@H](NC(=O)OC(C)(C)C)c1ccccc1)C(F)(F)F.CS(=O)(=O)O [Compound 11, 2′-O-[4-(N,N-diethyl)amino-2-methyl-2(R)-2-trifluoromethylbutyryl]cabazitaxel methanesulfonate]	56.2%	80.5%	92.1%	–	–	–	–	52.3%	89.6%	97.2%	–
CCN(CC)CC[C@H](F)C(=O)O[C@@H](C(=O)O[C@H]1C[C@@]2(O)[C@@H](OC(=O)c3ccccc3)[C@@H]3[C@]4(OC(C)=O)CO[C@@H]4C[C@H](O)[C@@]3(C)C(=O)[C@H](OC(C)=O)C(=C1C)C2(C)C)[C@@H](NC(=O)c1ccccc1)c1ccccc1.O=C(O)/C=C/C(=O)O [Compound 17, 2′-O-[4-(N,N-diethyl)amino-2(S)-fluorobutyryl]paclitaxel fumarate]	–	–	–	−8.1%	−44%	55.7 ± 10.1 mm^3	114%	–	–	–	133.6 ± 9.4 mm^3

From patent US10239851B2 (priority 2014, dated 2019)
